Laboratory results: patent US20230320984A1, “TOFACITINIB-CONTAINING ANHYDROUS ELASTOMER-BASED GEL FORMULATIONS” (Vyne Therapeutics Inc., priority 2022, published 2023)
Like-named read-outs stand apart in the source and are kept apart here.

Tests used:
[1] = tested on: Human skin from cosmetic reduction surgery; assay: Skin penetration (IVPT), vertical diffusion cell (Method A); assay type: in vitro ADME
Protocol: The skin is dosed with approx. 6 mg of formulation to achieve a dose of ˜ 10 mg/cm2. Receptor solution is collected at pre-determined intervals over the course of 24 hours and analyzed using a liquid chromatography with tandem mass spectrometry (LC-MS/MS) analytical method.
Following 24 hours, the residual formulation is removed from the surface of the skin. The skin surface is tape-stripped up to five times to remove residual formulation and the top of the skin surface layers (Stratum Corneum). The epidermis is then heat-separated from the dermis. The active agent is extracted from the skin layers and the amount of active agent delivered to the epidermis and dermis is then determined by LC-MS/MS.

[2] = Chemical stability of formulations (Method H); assay type: physicochemical; details: gel with Tofacitinib Citrate 1.0% and Fingolimod HCl 0.01% (Table 38)
Protocol: Where another active agent such as fingolimod is present in the formulations the samples are analyzed for that active agent and its degradation products by HPLC. […] The gradient elution is employed.

[3] = tested on: Reconstructed Human Epidermis (RHE) exposed to Th2 cytokines IL-4, IL-13, IL-25; assay: Reconstructed Human Epidermis Th2 model for AD efficacy (Method S); assay type: cell-based; details: 48 h
Protocol: Reconstructed Human Epidermis (RHE) tissues are produced and grown by StratiCELL. To generate the morphological and functional aspects of AD, RHE samples are exposed to Th2 cytokines IL-4, IL-13, IL-25. Th-2 cytokines are applied for 48 h in the culture medium of epidermis. Test formulations are applied simultaneously with the cytokines on the stratum corneum of the epidermis during the same 48 h. The tissue morphology is assessed by histology and hemalum/eosin (H/E) staining—quantification of a fluorescent dye (biotin) diffusion through the epidermis in order to evaluate the barrier function.

[4] = Visual solubility evaluation of Fingolimod free base; assay type: physicochemical; details: for solubility: organic solvent or mixture, thermodynamic from solid, visual, RT
Protocol: A visual solubility evaluation of Fingolimod free base was performed.

[5] = human, in vivo
Protocol: Values below the limit of concentration are omitted from determination of geometric mean and geometric % CV.
Samples designated for analysis of fingolimod and fingolimod phosphate are collected and processed for shipment to bioanalytical laboratories. Frozen samples are thawed at room temperature and homogenized by vortexing. 10 μL of ISTD working solution (WS ISTD2 50 ng/mL in methanol/water, 50/50, V/V) is addeded to Eppendorf tubes each containing 200 sample (exception blank samples for which 10 μL of methanol/water, 50/50, V/V is added). Samples are vortexed for 5 sec and 800 μL of acetonitrile is added to each sample and vortexed for additional 10 sec. Next samples are centrifuged for 10 min at 14000 rpm at 5° C. and 900 μL is transferred to hemolyse tube. The samples are evaporated at approximately 40° C. […]
Whole blood is analyzed for concentration of fingolimod and fingolimod phosphate using a validated analytical procedure for the simultaneous quantitation of both analytes. […] After, the analyte is separated on a Kinetex Biphenyl column (50×3.0 mm, 2.6 μm) and analyzed using electrospray ionization (ESI) tandem mass spectrometry (MS/MS) in the multiple reaction monitoring mode (MRM). […]

[6] = cited from earlier work
[7] = Toxicokinetics / pK in minipigs (Method T); details: day 1; tofacitinib 0.6% fingolimod 0.005% gel group
Protocol: (§1) The animals are not fasted prior to blood collection, with the exception of the intervals that coincide with fasting for clinical pathology collections.
(§2) If necessary, the samples are frozen on dry ice prior to being placed in the freezer. […] Samples are stored at the bioanalytical laboratories in a freezer set to maintain −80±10° C. until analysis.
(§3) Samples designated for analysis of fingolimod and fingolimod phosphate are mixed gently, lysed with an equal volume of deionized water, vortexed for approximately 1 minute, divided into two approximately equal aliquots, transferred to uniquely labeled polypropylene tubes and frozen in a freezer set to maintain −70° C. If necessary, the samples are frozen on dry ice prior to being placed in the freezer. The samples for fingolimod analysis are shipped with a temperature monitoring device to bioanalytical laboratories. Samples are stored at the bioanalytical laboratories in a freezer set to maintain −75±15° C. until analysis.
(§4) Whole blood is analyzed for concentration of fingolimod and fingolimod phosphate using a validated analytical procedure for the simultaneous quantitation of both analytes.
(§5) TK samples collected on Days 49 and 56 from recovery animals in Groups 1, 2, 3, 5, and 6 are also analyzed. […]

[8] = Human equivalent dose, safety factor and predicted exposure from the minipig NOAEL
[9] = minipig, in vivo
Protocol: as §1, §2, §3, §4, §5

[10] = tested on: S1P receptors (S1P1 and S1P3-5); details: cited from earlier work
[11] = estimated from Table 43a, epidermis assumed 80 μm, skin 500 μm, density 1.0 g/cm^3
[12] = gel with Fingolimod HCl […] (Table 42), Mean (n = 5)
[13] = gel with Tofacitinib Citrate 1.0% and Fingolimod HCl 0.01% (Table 43a), Mean (n = 5)

Molecule: CCCCCCCCc1ccc(CCC(N)(CO)CO)cc1 [fingolimod, 2-amino-2-[2-(4-octylphenyl)ethyl]propane-1,3-diol]
- Dermis concentration, μg/g Based on the Mean (n = 5) [1, 11]: 0.6 µg/g
- Epidermis concentration, μg/g Based on the Mean (n = 5) [1, 11]: 3.4 µg/g
- estimated concentration of active in dermis ([1]; formulation with 1.0% tofacitinib citrate and […] fingolimod hydrochloride): 0.6 µg/mL
- estimated concentration of active in epidermis ([1]; formulation with 1.0% tofacitinib citrate and […] fingolimod hydrochloride, epidermis assumed 80 μm): 3.4 µg/g
- Amount of Fingolimod recovered, % applied dose, Dermis [1, 12]: 2.59%
- Amount of Fingolimod recovered, % applied dose, Epidermis [1, 12]: 1.98%
- Amount of Fingolimod recovered, % applied dose, Receptor fluid [1, 12]: ND (not detected (below LOQ of 0.25 ng/mL))
- Amount of Fingolimod recovered, ng, Dermis [1, 12]: 49.16 ^ ng
- Amount of Fingolimod recovered, ng, Receptor fluid [1, 12]: ND (not detected (below LOQ of 0.25 ng/mL))
- Amount of Fingolimod recovered, % applied dose, Dermis [1, 13]: 1.44%
- Amount of Fingolimod recovered, % applied dose, Epidermis [1, 13]: 1.59%
- Amount of Fingolimod recovered, % applied dose, Receptor fluid [1, 13]: ND (not detected (below LOQ of 0.25 ng/ml))
- Amount of Fingolimod recovered, ng, Dermis [1, 13]: 14.82 ng
- Amount of Fingolimod recovered, ng, Epidermis [1, 13]: 16.21 ng
- Amount of Fingolimod recovered, ng, Receptor fluid [1, 13]: ND (not detected (below LOQ of 0.25 ng/ml))
- Assay of Fingolimod, % LC ([2]; 2 months at 40° C.): 97.2 % LC
- Assay of Fingolimod, % LC ([2]; 2 months at 50° C.): 95.0 % LC
- Assay of Fingolimod, % LC ([2]; 3 weeks at 5° C.): 100.3 % LC
- Assay of Fingolimod, % LC ([2]; 3 weeks at 40° C.): 99.9 % LC
- Assay of Fingolimod, % LC ([2]; 3 weeks at 50° C.): 94.1 % LC
- Assay of Fingolimod, % LC ([2]; Initial): 99.9 % LC
- barrier function (biotin immunofluorescence) ([3]; 0.001% w/w and 0.01% w/w): reduced the Th2-induced barrier alteration
- tissue morphology (histology) ([3]; 0.001% w/w and 0.01% w/w): reduced the Th2-induced barrier alteration
- barrier function (biotin immunofluorescence) ([3]; 0.1% and 1%): Increased barrier alteration
- tissue morphology (histology) ([3]; 0.1% w/w and 1% w/w): increased fragilization was observed with junction/adhesion loss and disorganization of cell layers
- visual solubility at RT ([4]; alcohols): very good solubility
- visual solubility at RT ([4]; most of organic solvents tested): good solubility
- solubility ([4]; Diisopropyloxide): < 1.1 mg/mL
- solubility ([4]; Ethanol): > 20 mg/mL
- solubility ([4]; Methanol): > 20 mg/mL
- solubility ([4]; Toluene): < 1.7 mg/mL
- visual solubility at RT ([4]; water, toluene, diisopropyloxide and methyl ethyl ketone): very low soluble
- whole blood concentrations (all below the assay LLOQ) [5]: < 0.08 ng/mL
- solubility ([6]; organic solvents, such as ethanol, DMSO and dimethyl formamide): soluble
- solubility ([6]; water): sparingly soluble
- quantifiability in blood [7]: not quantifiable
- human equivalent dose (HED) ([8]; from minipig NOAEL, minipig 10 kg, human 60 kg): 2.21 mg/kg/day
- safety factor over the NOAEL of the 6-week minipig dermal toxicity study ([8]; maximum daily application of 2 g dual active gel): 669 fold

Molecule: fingolimod-phosphate
- quantifiability in blood [9]: only quantifiable in the 0.2% fingolimod gel group
- whole blood concentrations (all below the assay LLOQ) [5]: < 0.08 ng/mL
- affinity for four of the five S1P receptors [10]: 0.3 to 3.1 nM
